The results in this text go back to US20230076820A1, “Substituted Pyrazole Compounds and Methods of Using Them for Treatment of Hyperproliferative Diseases” (Bantam Pharmaceutical, LLC, priority 2016, published 2023).

The assay concerns HCT116 cells. As to the kind of experiment: Total glutathione levels (GSH-Glo), HCT116. It is filed as cell-based. How it is done:
Measurement of glutathione levels following treatment using three cell lines: BJAB, HCT116, and normal human lung fibroblasts (NHLF) were maintained in RPMI (Wisent), McCoy’s (Wisent) or FGM-2 (Lonza) medium, respectively. For total glutathione measurement, 5000 cells /well (BJAB or HCT116) or 10,000 cells/well (NHLF) were transferred to clear-bottom 96-well assay plates (Thermo Fisher) in a volume of 50 µL. Plates were incubated overnight at 37° C. in 5% CO2, in an unsealed plastic bag with damp paper. Test compound was serially diluted in medium plus 0.4% DMSO, and 50 µL/well of each dilution was transferred to the assay plate. Assay plates were incubated at 37° C. in 5% CO2 in unsealed plastic bag with damp paper for the indicated time. For total glutathione measurement, GSH-Glo™ reagent (Promega) was prepared by diluting provided Luciferin-NT (1:100), Glutathione S-Transferase (1:100), and DTT (1 mM final) to GSH-Glo™ Reaction buffer, and 100 µL was added to assay plates, followed by 30 min incubation at room temperature, and then 100 µL Luciferin Detection Reagent was added. […] Luminescence was measured using Tecan Infinite 200Pro.
Effect on Glutathione levels: BJAB and HCT116 cells were maintained in RPMI medium (Wisent) or McCoy’s medium (Wisent), respectively. […] Total glutathione levels were determined according to the procedure described above.

As for `CC1=CC(=O)c2ccccc2C1=O` [menadione, Menadione], where the note is “HCT116, FIG. 3”, the “glutathione levels after treatment” value is listed as “reduction in glutathione levels”. Moreover, the “glutathione levels in the presence or absence of N-acetyl cysteine” value (HCT116, with or without N-acetyl cysteine, FIG. 3) was “N-acetyl cysteine in the media prevents the reduction of glutathione”.
